In PubChem BioAssay (NCI):
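GI50 is the concentration that inhibits growth by half. The concentration for full growth arrest is given as TGI.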

Experiments:
Assay in all cases: NCI anticancer screen, dose series, 384-well format
[1] = system: SW-620 colon
[2] = system: HL-60(TB) leukemia
[3] = system: MOLT-4 leukemia
[4] = system: SN12C renal
[5] = system: RPMI-8226 leukemia
[6] = system: NCI-H226 lung
[7] = system: KM12 colon
[8] = system: 786-0 renal
[9] = system: HCC-2998 colon
[10] = system: OVCAR-3 ovarian
[11] = system: NCI-H322M lung
[12] = system: HOP-62 NSCLC
[13] = system: ACHN renal
[14] = system: BT-549 breast
[15] = system: COLO 205 colon
[16] = system: DU-145 prostate
[17] = system: NCI-H23 lung
[18] = system: NCI-H522 lung
[19] = system: MALME-3M melanoma
[20] = system: CAKI-1 renal
[21] = system: OVCAR-5 ovarian
[22] = system: SR leukemia
[23] = system: RXF 393 renal
[24] = system: OVCAR-8 ovarian
[25] = system: UACC-62 melanoma
[26] = system: SK-MEL-5 melanoma
[27] = system: SF-268 CNS
[28] = system: A549 NSCLC
[29] = system: M14 melanoma
[30] = system: EKVX NSCLC
[31] = system: NCI/ADR-RES ovarian
[32] = system: A498 renal
[33] = system: SF-295 CNS
[34] = system: MDA-MB-231 breast
[35] = system: PC-3 prostate
[36] = system: HCT-15 colon
[37] = system: MDA-MB-435 melanoma
[38] = system: CCRF-CEM leukemia
[39] = system: SNB-75 CNS
[40] = system: OVCAR-4 ovarian
[41] = system: T-47D breast
[42] = system: IGROV1 ovarian
[43] = system: K-562 leukemia
[44] = system: MCF7 breast
[45] = system: UO-31 renal
[46] = system: UACC-257 melanoma
[47] = system: NCI-H460 NSCLC
[48] = system: SK-MEL-28 melanoma
[49] = system: HOP-92 NSCLC
[50] = system: MDA-MB-468 breast
[51] = system: SF-539 CNS
[52] = system: TK-10 renal
[53] = system: HT29 colon
[54] = system: SK-OV-3 ovarian
[55] = system: LOX IMVI melanoma
[56] = system: U251 glioblastoma
[57] = system: HS 578T breast
[58] = system: SNB-19 CNS

CNc1nc(-c2ccc3c(N)n[nH]c3c2)cc(N2C[C@@H](C(=O)NC3CCCCC3)CC[C@H]2C)n1
GI50 [1]: 11.6 µM
TGI [1]: 24 µM
GI50 [2]: 1.26 µM
TGI [2]: 2.85 µM
GI50 [3]: 0.545 µM
TGI [3]: 1.9 µM
GI50 [4]: 1.9 µM
TGI [4]: 15.5 µM
GI50 [5]: 0.471 µM
TGI [5]: 3.49 µM
GI50 [6]: 2.15 µM
TGI [6]: 14 µM
GI50 [7]: 10.1 µM
TGI [7]: 21.8 µM
GI50 [8]: 3.25 µM
TGI [8]: 13.8 µM
GI50 [9]: 2.73 µM
TGI [9]: 13.9 µM
GI50 [10]: 3.45 µM
TGI [10]: 16.7 µM
GI50 [11]: 7.92 µM
TGI [11]: 20.7 µM
GI50 [12]: 7.05 µM
TGI [12]: 20.3 µM
GI50 [13]: 4.99 µM
TGI [13]: 20.8 µM
GI50 [14]: 1.72 µM
TGI [14]: 13.9 µM
GI50 [15]: 1.56 µM
TGI [15]: 11 µM
GI50 [16]: 10.3 µM
TGI [16]: 22.1 µM
GI50 [17]: 1.86 µM
TGI [17]: 13.2 µM
GI50 [18]: 6.52 µM
TGI [18]: 19.9 µM
GI50 [19]: 0.157 µM
TGI [19]: 2.01 µM
GI50 [20]: 1.61 µM
TGI [20]: 15.2 µM
GI50 [21]: 1.64 µM
TGI [21]: 6.52 µM
GI50 [22]: 0.475 µM
TGI [22]: 8.48 µM
GI50 [23]: 2.97 µM
TGI [23]: 13 µM
GI50 [24]: 9.7 µM
TGI [24]: 21.6 µM
GI50 [25]: 1.93 µM
TGI [25]: 13.5 µM
GI50 [26]: 0.798 µM
TGI [26]: 2.81 µM
GI50 [27]: 5.21 µM
TGI [27]: 19.3 µM
GI50 [28]: 3.78 µM
TGI [28]: 16.2 µM
GI50 [29]: 1.7 µM
TGI [29]: 17.8 µM
GI50 [30]: 2.17 µM
TGI [30]: 15 µM
GI50 [31]: 13.5 µM
TGI [31]: 26.4 µM
GI50 [32]: 0.666 µM
TGI [32]: 7.16 µM
GI50 [33]: 4.81 µM
TGI [33]: 18.3 µM
GI50 [34]: 1.91 µM
TGI [34]: 16.7 µM
GI50 [35]: 0.877 µM
TGI [35]: 14.7 µM
GI50 [36]: 2.81 µM
TGI [36]: 13.9 µM
GI50 [37]: 3.29 µM
TGI [37]: 16.9 µM
GI50 [38]: 1.04 µM
TGI [38]: 3.12 µM
GI50 [39]: 1.19 µM
TGI [39]: 13.4 µM
GI50 [40]: 2.58 µM
TGI [40]: 13.3 µM
GI50 [41]: 0.0787 µM
TGI [41]: 1.58 µM
GI50 [42]: 2.66 µM
TGI [42]: 10.1 µM
GI50 [43]: 4.88 µM
TGI [43]: 17.4 µM
GI50 [44]: 0.417 µM
TGI [44]: 2.95 µM
GI50 [45]: 5.39 µM
TGI [45]: 19.4 µM
GI50 [46]: 1.62 µM
TGI [46]: 10.5 µM
GI50 [47]: 1.6 µM
TGI [47]: 13.9 µM
GI50 [48]: 1.54 µM
TGI [48]: 12.5 µM
GI50 [49]: 0.99 µM
TGI [49]: 6.78 µM
GI50 [50]: 0.213 µM
TGI [50]: 0.997 µM
GI50 [51]: 3.52 µM
TGI [51]: 15.8 µM
GI50 [52]: 3.15 µM
TGI [52]: 16.4 µM
GI50 [53]: 3.45 µM
TGI [53]: 18 µM
GI50 [54]: 1.68 µM
TGI [54]: 12.1 µM
GI50 [55]: 4.8 µM
TGI [55]: 17.4 µM
GI50 [56]: 10.4 µM
TGI [56]: 22.4 µM
GI50 [57]: 1.33 µM
TGI [57]: 6.42 µM
GI50 [58]: 7.1 µM
TGI [58]: 20 µM

CC[C@@H](C(=O)[C@@H](C)[C@@H](O)[C@H](C)[C@@H]1O[C@@H]([C@@H](CC)C(=O)O)CC[C@@H]1C)[C@H]1O[C@]2(C=C[C@@H](O)[C@]3(CC[C@@](C)([C@H]4CC[C@](O)(CC)[C@H](C)O4)O3)O2)[C@H](C)C[C@@H]1C
GI50 [2]: < 0.01 µM
TGI [2]: < 0.01 µM
GI50 [4]: < 0.01 µM
TGI [4]: 1.76 µM
GI50 [10]: < 0.01 µM
TGI [10]: < 0.01 µM
GI50 [13]: 0.416 µM
TGI [13]: 13.6 µM
GI50 [22]: < 0.01 µM
TGI [22]: < 0.01 µM
GI50 [23]: < 0.01 µM
TGI [23]: < 0.01 µM
GI50 [31]: 0.167 µM
TGI [31]: 2.11 µM
GI50 [36]: 0.299 µM
TGI [36]: 1.19 µM
GI50 [44]: < 0.01 µM
TGI [44]: 0.278 µM
GI50 [45]: 0.157 µM
TGI [45]: 0.759 µM
